Two molecules from patent publication US7576095B2, “Therapeutic agents” (Astrazeneca AB, priority 2005, dated 2009) can be followed below.

Series [1] in a line: Solubility in dimethyl sulfoxide. Type of series: physicochemical. The source says: The compounds of the present invention have improved solubility in organic solvents compared to compounds in the prior art. […] It would be expected that this increase in solubility in organic solvents would lead to improvements in bioavailability and ease of manufacture and formulation.
The target of series [2] is T1, CB1 receptor (Homo sapiens, UniProt P21554).
T1 construct: expressed in transfected cells
Kind of series: [35S]-GTPγS binding assay, membranes of cells stably transfected with the CB1 gene, inhibition of agonist CP55940 (EC80). Type of series: biochemical. The conditions noted are these: half maximal inhibition of GTPγS binding; EC80 concentration of CP55940. The method, then:
Compounds of the present invention are active against the receptor product of the CB1 gene. The affinity of the compounds of the invention for central cannabinoid receptors is demonstrable in methods described in Devane et al , Molecular Pharmacology, 1988, 34,605 or those described in WO01/70700 or EP 656354. Alternatively the assay may be performed as follows.
10 μg of membranes prepared from cells stably transfected with the CB1 gene were suspended in 200 μl of 100 mM NaCl, 5 mM MgCl2, 1 mM EDTA, 50 mM HEPES (pH 7.4), 1 mM DTT, 0.1% BSA and 100 μM GDP. To this was added an EC80 concentration of agonist (CP55940), the required concentration of test compound and 0.1 μCi [^35S]-GTPγS. The reaction was allowed to proceed at 30° C. for 45 min. […] Filters were then covered with scintilant and counted for the amount of [^35S]-GTPγS retained by the filter.
Activity is measured in the absence of all ligands (minimum activity) or in the presence of an EC80 concentration of CP55940 (maximum activity). […] At various concentrations of novel ligand, activity is calculated as a percentage of the maximum activity and plotted. The data are fitted using the equation y=A+((B-A)/1+((C/x) UD)) and the IC50 value determined as the concentration required to give half maximal inhibition of GTPγS binding under the conditions used.
(GTPγS resists hydrolysis and so accumulates on activated G proteins.)

T1 sequence (P21554 whole entry): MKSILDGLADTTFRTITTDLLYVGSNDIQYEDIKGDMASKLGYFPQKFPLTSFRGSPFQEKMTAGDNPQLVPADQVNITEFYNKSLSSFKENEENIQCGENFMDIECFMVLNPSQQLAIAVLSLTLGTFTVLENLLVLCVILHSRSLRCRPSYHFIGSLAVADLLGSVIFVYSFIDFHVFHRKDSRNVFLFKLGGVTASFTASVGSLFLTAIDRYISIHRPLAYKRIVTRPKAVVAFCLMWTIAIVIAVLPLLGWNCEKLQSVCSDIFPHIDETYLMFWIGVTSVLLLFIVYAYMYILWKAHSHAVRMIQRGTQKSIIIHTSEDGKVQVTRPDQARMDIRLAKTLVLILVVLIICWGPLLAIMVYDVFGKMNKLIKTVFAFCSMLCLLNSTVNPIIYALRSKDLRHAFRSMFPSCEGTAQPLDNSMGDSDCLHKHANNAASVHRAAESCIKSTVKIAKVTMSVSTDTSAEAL

As to `Cc1c2c(n(-c3ccc(Cl)cc3Cl)c1-c1ccc(Cl)cc1)CCN(N1CCCCC1)C2=O` [Example 19 of WO03/027114, 2-(4-chlorophenyl)-1-(2,4-dichlorophenyl)-3-methyl-5-(1-piperidinyl)-1,5,6,7-tetrahydro-4H-pyrrolo-[3,2-c]pyridin-4-one], the “solubility in dimethyl sulfoxide” value in series [1] is listed as “insoluble”. For orientation: IC50 means the concentration that gives 50% inhibition. High values mean a need for much substance, low ones inhibition by little substance. In series [2], `Cc1c2c(n(-c3ccccc3Cl)c1-c1ccc(OS(=O)(=O)CCC(F)(F)F)cc1)CCN(N1CCCCC1)C2=O` [Example 1, 3,3,3-Trifluoropropane-1-sulfonic acid 4-[1-(2-chlorophenyl)-3-methyl-4-oxo-5-piperidin-1-yl-4,5,6,7-tetrahydro-1H-pyrrolo[3,2-c]pyridine-2-yl]phenyl ester] gave a half-maximal inhibitory concentration (IC50) of 0.98 nM.
